From ChEMBL document CHEMBL1201862, “PubChem BioAssay data set” (2004) come the findings set out here.

For orientation: GI50 means the concentration at which growth is held to half of that of the control.

Among the test systems are A498; CCRF-CEM; COLO 205; HOP-62; HOP-92; HT-29; M14; MDA-N; Malme-3M; NCI-H460; OVCAR-5; PC-3; RPMI-8226; SK-MEL-28; SN12C; SNB-75; UACC-257; UACC-62; MOLT-4; SF-539.
What all share (test): DTP human tumour cell line panel, 48 h

Molecules are shown by their SMILES.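 96-well plates; 48 h exposure; 5 concentrations. Endpoints by linear interpolation between flanking doses. Not reached: highest tested concentration assigned. The concentration for 50% growth inhibition is given as GI50.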 Calls of active or inactive are those of the source. No stated cut-off is given here; in the data, active = GI50 up to about 1.1 µM and inactive = higher. Where only a bound is given, the exact number is not on record here.

Turning to `O=C(O)C(Cc1cccs1)C(=O)O`, the GI50 in the experiment on A498, in the experiment on CCRF-CEM, in the experiment on COLO 205, in the experiment on HOP-62, with HOP-92 and in the experiment on HT-29 was > 100 µM (inactive) in each case. In addition, the GI50 in the experiment with M14, in the experiment with MDA-N, with Malme-3M, with NCI-H460, in the experiment on OVCAR-5 and in the experiment on PC-3 was > 100 µM (inactive) in each case. In addition, the GI50 in the experiment with RPMI-8226, in the experiment on SK-MEL-28, with SN12C, in the experiment on SNB-75, in the experiment on UACC-257 and in the experiment on UACC-62 was > 100 µM (inactive) throughout.

In the case of `Cc1c(Cl)c(S(N)(=O)=O)cc(S(N)(=O)=O)c1NC(=O)c1ccc(Cl)cc1`, the GI50 in the experiment with A498, with CCRF-CEM, in the experiment with COLO 205, in the experiment with HOP-62, with HOP-92 and in the experiment on HT-29 was > 100 µM (inactive) throughout. In addition, the GI50 with M14, with MDA-N, in the experiment with MOLT-4, in the experiment on Malme-3M, with NCI-H460 and in the experiment on OVCAR-5 was > 100 µM (inactive) each time. In addition, the GI50 in the experiment on PC-3, in the experiment on RPMI-8226, with SK-MEL-28, in the experiment on SN12C, with SNB-75 and in the experiment with UACC-257 was > 100 µM (inactive) in each case. For the same molecule, the GI50 with UACC-62 was > 100 µM (inactive).

For `O=C(O)c1cccc(C(=O)O)c1[S+]([O-])Cc1ccccc1` (centres undefined), the GI50 in the experiment with A498, with COLO 205, in the experiment on HOP-62, with HOP-92, with HT-29 and in the experiment on M14 was > 100 µM (inactive) throughout. The GI50 in the experiment on MDA-N, with Malme-3M, in the experiment on NCI-H460, with OVCAR-5, in the experiment on PC-3 and in the experiment on RPMI-8226 was > 100 µM (inactive) in each case. Moreover, the GI50 in the experiment on SF-539, with SK-MEL-28, in the experiment with SN12C, in the experiment with SNB-75, in the experiment with UACC-257 and in the experiment with UACC-62 was > 100 µM (inactive) throughout.

In the case of `CC(=O)C1(/N=N/c2ccc(S(N)(=O)=O)cc2)CCOC1=O` (centres undefined), the GI50 in the experiment on A498, in the experiment on CCRF-CEM, in the experiment with COLO 205, with HOP-62, in the experiment on HOP-92 and in the experiment on HT-29 was > 100 µM (inactive) in each case. Also, the GI50 in the experiment with M14, in the experiment on MDA-N, in the experiment with Malme-3M, with NCI-H460, in the experiment with OVCAR-5 and with PC-3 was > 100 µM (inactive) in each case. In addition, the GI50 in the experiment on SF-539, with SK-MEL-28, in the experiment on SN12C, in the experiment with SNB-75, in the experiment on UACC-257 and in the experiment with UACC-62 was > 100 µM (inactive) each time.

As to `Oc1ccc2ccccc2c1OCc1nnc(CCCCCCCCc2nnc(COc3c(O)ccc4ccccc34)o2)o1`, the GI50 in the experiment with A498, in the experiment on COLO 205, in the experiment with HOP-92, in the experiment on HT-29, in the experiment on M14 and in the experiment on MDA-N was > 100 µM (inactive) in each case. The GI50 was 92.3 µM (inactive) in the experiment on MOLT-4; > 100 µM (inactive) in the experiment with Malme-3M; > 100 µM (inactive) in the experiment on NCI-H460; > 100 µM (inactive) in the experiment with OVCAR-5; > 100 µM (inactive) in the experiment on PC-3; > 100 µM (inactive) with RPMI-8226. Besides, the GI50 in the experiment on SK-MEL-28, with SN12C, in the experiment on SNB-75, with UACC-257 and with UACC-62 was > 100 µM (inactive) each time.

With `N#CC(C#N)=C1C(C#N)=C(N)NC12OCCO2`, the GI50 with A498, in the experiment on CCRF-CEM, in the experiment on COLO 205, in the experiment on HOP-62, in the experiment on HOP-92 and in the experiment on HT-29 was > 100 µM (inactive) each time. Also, the GI50 with M14, in the experiment with MDA-N, in the experiment on MOLT-4, in the experiment with Malme-3M, in the experiment on NCI-H460 and in the experiment with OVCAR-5 was > 100 µM (inactive) in each case. In addition, the GI50 with PC-3, in the experiment with RPMI-8226, in the experiment with SK-MEL-28, in the experiment with SN12C, in the experiment with UACC-257 and with UACC-62 was > 100 µM (inactive) in each case.

`CCN1CCCc2cc3c(C(F)(F)F)cc(=O)oc3cc21`: the GI50 is 45.9 µM (inactive) with A498; 63.8 µM (inactive) with COLO 205; > 100 µM (inactive) in the experiment with HOP-62; 33.3 µM (inactive) in the experiment on HOP-92; 48.8 µM (inactive) with HT-29; > 100 µM (inactive) with M14. For the same molecule, the GI50 with MDA-N was > 100 µM (inactive); in the experiment on MOLT-4, 42.4 µM (inactive); in the experiment on NCI-H460, 82.8 µM (inactive); in the experiment on OVCAR-5, > 100 µM (inactive); with PC-3, 20.7 µM (inactive); in the experiment on SF-539, > 100 µM (inactive). Further, the GI50 with SK-MEL-28 was > 100 µM (inactive); in the experiment on SN12C, 99.8 µM (inactive); with SNB-75 it was 42.5 µM (inactive); in the experiment with UACC-257 it was 42.1 µM (inactive); in the experiment on UACC-62 it was > 100 µM (inactive).

Consider `COC(=O)[C@]12CC[C@H]3CN(C(=O)OCc4ccccc4)[C@H]([C@H]31)[C@H](c1ccccc1)N2`, for which the GI50 was 80 µM (inactive) in the experiment on A498; 41.3 µM (inactive) in the experiment on CCRF-CEM; 92.9 µM (inactive) with COLO 205; > 100 µM (inactive) in the experiment on HOP-62; 72.3 µM (inactive) in the experiment with HOP-92; 74.8 µM (inactive) in the experiment on HT-29. Also, the GI50 was 70 µM (inactive) in the experiment with M14; 57.3 µM (inactive) in the experiment on MDA-N; 33 µM (inactive) in the experiment on MOLT-4; > 100 µM (inactive) with NCI-H460; > 100 µM (inactive) with OVCAR-5; 43.2 µM (inactive) with PC-3. For the same molecule, the GI50 in the experiment with RPMI-8226 was 36.1 µM (inactive); in the experiment on SF-539, > 100 µM (inactive); in the experiment on SK-MEL-28, > 100 µM (inactive); in the experiment with SN12C, > 100 µM (inactive); with SNB-75, > 100 µM (inactive); with UACC-257, 39.5 µM (inactive). Also, in the experiment with UACC-62, the GI50 was 55 µM (inactive).

For the molecule `O=C(O)[C@@H]1[C@H](C(=O)O)[C@H](C(=O)O)C[C@@H]1C(=O)O`, the GI50 in the experiment with A498, in the experiment with COLO 205, in the experiment with HOP-62, in the experiment with HOP-92, in the experiment on HT-29 and in the experiment on M14 was > 100 µM (inactive) throughout. For the same molecule, the GI50 in the experiment with MDA-N, in the experiment on MOLT-4, in the experiment on Malme-3M, in the experiment on NCI-H460, with OVCAR-5 and in the experiment with PC-3 was > 100 µM (inactive) throughout. Further, the GI50 with RPMI-8226, in the experiment with SF-539, with SK-MEL-28, in the experiment with SN12C, in the experiment on SNB-75 and with UACC-257 was > 100 µM (inactive) each time. Also, in the experiment with UACC-62, the GI50 is > 100 µM (inactive).

With `CC(C)N(C(=O)C12C3(C(=O)OC(C)(C)C)C4C5(C#N)C3C1(C(=O)OC(C)(C)C)C5C42C(=O)OC(C)(C)C)C(C)C` (centres undefined), the GI50 is > 100 µM (inactive) in the experiment on A498; 10.9 µM (inactive) with CCRF-CEM; 21.5 µM (inactive) with COLO 205; > 100 µM (inactive) in the experiment with HOP-62; 8.32 µM (inactive) in the experiment with HOP-92; 34.6 µM (inactive) in the experiment on HT-29. Moreover, the GI50 in the experiment on M14 is 59.6 µM (inactive); with MDA-N it was 19.1 µM (inactive); in the experiment on MOLT-4, 13.6 µM (inactive); in the experiment on NCI-H460, 75.7 µM (inactive); in the experiment on OVCAR-5 it was > 100 µM (inactive); in the experiment on PC-3, 51.1 µM (inactive). The GI50 in the experiment with SF-539 is > 100 µM (inactive); in the experiment on SK-MEL-28, 29.4 µM (inactive); in the experiment with SN12C it was > 100 µM (inactive); in the experiment with SNB-75, 0.149 µM (active); in the experiment on UACC-257 it was 28.9 µM (inactive); in the experiment on UACC-62, 40.6 µM (inactive).

Consider `CC(C)C1=CC2=C(C(=O)C1=O)C13CCCC(C)(C)C1CC2OC3=O` (centres undefined), for which the GI50 with A498 is 27.2 µM (inactive); in the experiment with CCRF-CEM, 3.97 µM (inactive); in the experiment with COLO 205 it was 17.2 µM (inactive); with HOP-92, 19 µM (inactive); in the experiment on HT-29, 12.5 µM (inactive); in the experiment with M14 it was 24 µM (inactive). Further, the GI50 is 17.9 µM (inactive) in the experiment with MDA-N; 6.11 µM (inactive) with MOLT-4; 26.2 µM (inactive) in the experiment with NCI-H460; 25.4 µM (inactive) in the experiment on OVCAR-5; 24.2 µM (inactive) in the experiment with PC-3; 8.18 µM (inactive) in the experiment with RPMI-8226. Further, the GI50 with SF-539 was 20.7 µM (inactive); in the experiment with SK-MEL-28, 14.1 µM (inactive); in the experiment with SN12C, 21.4 µM (inactive); with SNB-75 it was 25.7 µM (inactive); with UACC-257, 23.9 µM (inactive); in the experiment with UACC-62, 13.4 µM (inactive).
